From patent US20210317134A1, “UBIQUITIN-SPECIFIC-PROCESSING PROTEASE 7 (USP7) MODULATORS AND USES THEREOF” (RAPT THERAPEUTICS, INC., priority 2019, published 2021)

What follows are compounds tested against USP7 (Homo sapiens, UniProt Q93009) (assay: USP7 inhibitory potency (Table 1)).
Chain of USP7 (Q93009 whole entry): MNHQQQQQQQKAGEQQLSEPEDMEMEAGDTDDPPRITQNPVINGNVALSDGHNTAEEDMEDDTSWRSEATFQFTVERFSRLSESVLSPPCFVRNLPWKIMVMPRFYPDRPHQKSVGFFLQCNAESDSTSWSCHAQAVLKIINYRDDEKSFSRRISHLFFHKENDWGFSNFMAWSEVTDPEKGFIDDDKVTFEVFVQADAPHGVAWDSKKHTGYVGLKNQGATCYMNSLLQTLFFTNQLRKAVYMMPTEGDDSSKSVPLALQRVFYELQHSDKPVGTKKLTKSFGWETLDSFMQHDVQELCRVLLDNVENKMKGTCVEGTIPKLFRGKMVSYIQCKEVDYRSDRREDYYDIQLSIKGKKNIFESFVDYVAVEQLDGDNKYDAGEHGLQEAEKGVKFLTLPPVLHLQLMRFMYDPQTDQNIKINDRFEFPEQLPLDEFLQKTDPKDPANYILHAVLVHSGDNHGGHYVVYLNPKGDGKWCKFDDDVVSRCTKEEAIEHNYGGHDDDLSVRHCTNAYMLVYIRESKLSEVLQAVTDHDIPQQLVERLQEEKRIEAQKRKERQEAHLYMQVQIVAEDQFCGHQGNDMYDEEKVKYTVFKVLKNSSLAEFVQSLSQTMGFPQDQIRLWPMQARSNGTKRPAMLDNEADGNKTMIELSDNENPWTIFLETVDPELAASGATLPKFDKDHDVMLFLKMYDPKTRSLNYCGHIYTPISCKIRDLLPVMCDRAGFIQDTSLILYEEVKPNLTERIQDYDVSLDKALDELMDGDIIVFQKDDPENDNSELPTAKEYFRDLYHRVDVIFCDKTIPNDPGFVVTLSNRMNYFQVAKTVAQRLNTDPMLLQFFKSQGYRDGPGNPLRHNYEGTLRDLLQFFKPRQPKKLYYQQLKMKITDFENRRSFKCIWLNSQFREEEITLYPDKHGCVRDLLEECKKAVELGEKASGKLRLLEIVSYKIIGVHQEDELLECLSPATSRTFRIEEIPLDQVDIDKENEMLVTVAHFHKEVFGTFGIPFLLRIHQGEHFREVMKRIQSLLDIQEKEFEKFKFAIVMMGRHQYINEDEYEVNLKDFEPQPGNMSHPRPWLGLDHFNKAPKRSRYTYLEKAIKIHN
Assay type: biochemical
`CS(=O)(=O)NCc1cc2nccc(-c3cc(Cl)cc4c3O[C@@H](C(=O)N3CCNCC3)C4)c2s1` [(R)-N-((7-(5-chloro-2-(piperazine-1-carbonyl)-2,3-dihydrobenzofuran-7-yl)thieno[3,2-b]pyridin-2-yl)methyl)methanesulfonamide] was tested, and the IC50 was < 1000 nM. `O=C([C@H]1Cc2cc(Cl)cc(-c3ccnc4cc(CO)sc34)c2O1)N1CCC(N2CCCCC2)CC1` [(R)-[1,4′-bipiperidin]-1′-yl(5-chloro-7-(2-(hydroxymethyl)thieno[3,2-b]pyridin-7-yl)-2,3-dihydrobenzofuran-2-yl)methanone] was tested, and the IC50 was < 1000 nM. For `O=C([C@H]1Cc2cc(Cl)cc(-c3ccnc4ccsc34)c2O1)N1CCC(N2CCCCC2)CC1` [(R)-[1,4′-bipiperidin]-1′-yl(5-chloro-7-(thieno[3,2-b]pyridin-7-yl)-2,3-dihydrobenzofuran-2-yl)methanone], the IC50 was 1000 to 10000 nM. `CC[C@H](O)c1cc2ncnc(-c3cc(Cl)cc4c3O[C@@H](c3onc5c3CNCC5)C4)c2s1` [(S)-1-(4-((R)-5-chloro-2-(4,5,6,7-tetrahydroisoxazolo[4,3-c]pyridin-3-yl)-2,3-dihydrobenzofuran-7-yl)thieno[3,2-d]pyrimidin-6-yl)propan-1-ol] was tested, and the IC50 was < 1000 nM. `CC[C@H](O)c1cc2nccc(-c3cc(Cl)cc4c3O[C@@H](c3onc5c3CNCC5)C4)c2s1` [(S)-1-(7-((R)-5-chloro-2-(4,5,6,7-tetrahydroisoxazolo[4,3-c]pyridin-3-yl)-2,3-dihydrobenzofuran-7-yl)thieno[3,2-b]pyridin-2-yl)propan-1-ol] was tested, and the IC50 was < 1000 nM. In the case of `CC[C@H](O)c1cc2nccc(-c3cc(Cl)cc4c3O[C@@](C)(c3onc5c3CNCC5)C4)c2s1` [(S)-1-(7-((R)-5-chloro-2-methyl-2-(4,5,6,7-tetrahydroisoxazolo[4,3-c]pyridin-3-yl)-2,3-dihydrobenzofuran-7-yl)thieno[3,2-b]pyridin-2-yl)propan-1-ol], the IC50 is reported as < 1000 nM. Compound `CC[C@H](O)c1cc2nccc(-c3cc(Cl)cc4c3O[C@](C)(c3onc5c3CNCC5)C4)c2s1` [(S)-1-(7-((S)-5-chloro-2-methyl-2-(4,5,6,7-tetrahydroisoxazolo[4,3-c]pyridin-3-yl)-2,3-dihydrobenzofuran-7-yl)thieno[3,2-b]pyridin-2-yl)propan-1-ol] has an IC50 of 1000 to 10000 nM. With `C[C@H]1CCN(Cc2cc3nccc(-c4cc(Cl)cc5c4O[C@@H](C(=O)N4CCNCC4)C5)c3s2)C1=O` [(S)-1-((7-((R)-5-chloro-2-(piperazine-1-carbonyl)-2,3-dihydrobenzofuran-7-yl)thieno[3,2-b]pyridin-2-yl)methyl)-3-methylpyrrolidin-2-one] the IC50 was < 1000 nM. With `Clc1cc2c(c(-c3ccnc4ccsc34)c1)O[C@H](c1onc3c1CNCC3)C2` [(S)-3-(5-chloro-7-(thieno[3,2-b]pyridin-7-yl)-2,3-dihydrobenzofuran-2-yl)-4,5,6,7-tetrahydroisoxazolo[4,3-c]pyridine] the IC50 was < 1000 nM. With `O[C@@]1(c2cc3nccc(-c4cc(Cl)cc5c4O[C@@H](c4onc6c4CNCC6)C5)c3s2)CCOC1` [(S)-3-(7-((R)-5-chloro-2-(4,5,6,7-tetrahydroisoxazolo[4,3-c]pyridin-3-yl)-2,3-dihydrobenzofuran-7-yl)thieno[3,2-b]pyridin-2-yl)tetrahydrofuran-3-ol] the IC50 was < 1000 nM. `O=C([C@@H]1Cc2cc(Cl)cc(-c3ccnc4cc(CO)sc34)c2O1)N1CCNCC1` [(S)-(5-chloro-7-(2-(hydroxymethyl)thieno[3,2-b]pyridin-7-yl)-2,3-dihydrobenzofuran-2-yl)(piperazin-1-yl)methanone] was tested, and the IC50 was 1000 to 10000 nM. `COC(=O)NCc1cc2nccc(-c3cc(Cl)cc4c3O[C@@H](c3onc5c3CNCC5)C4)c2s1` [Methyl (R)-((7-(5-chloro-2-(4,5,6,7-tetrahydroisoxazolo[4,3-c]pyridin-3-yl)-2,3-dihydrobenzofuran-7-yl)thieno[3,2-b]pyridin-2-yl)methyl)carbamate] was tested, and the IC50 was < 1000 nM. With `CC(=O)NC(C)c1cc2nccc(-c3cc(Cl)cc4c3O[C@@H](c3c5c(nn3C)CCNC5)C4)c2s1` (stereo partly drawn) [N-(1-(7-((R)-5-chloro-2-(2-methyl-4,5,6,7-tetrahydro-2H-pyrazolo[4,3-c]pyridin-3-yl)-2,3-dihydrobenzofuran-7-yl)thieno[3,2-b]pyridin-2-yl)ethyl)acetamide] the IC50 was < 1000 nM. `CC(=O)NC(C)c1cc2nccc(-c3cc(Cl)cc4c3O[C@@H](c3onc5c3CNCC5)C4)c2s1` (stereo partly drawn) [N-(1-(7-((R)-5-chloro-2-(4,5,6,7-tetrahydroisoxazolo[4,3-c]pyridin-3-yl)-2,3-dihydrobenzofuran-7-yl)thieno[3,2-b]pyridin-2-yl)ethyl)acetamide] was tested, and the IC50 was < 1000 nM. `CC(=O)NC(C)c1cc2nccc(-c3cc(Cl)cc4c3O[C@@H](C(=O)N3CCNCC3)C4)c2s1` (stereo partly drawn) [N-(1-(7-((R)-5-chloro-2-(piperazine-1-carbonyl)-2,3-dihydrobenzofuran-7-yl)thieno[3,2-b]pyridin-2-yl)ethyl)acetamide] was tested, and the IC50 was < 1000 nM. In the case of `CC(=O)NC(C)Cc1cc2nccc(-c3cc(Cl)cc4c3O[C@@H](C(=O)N3CCNCC3)C4)c2s1` (stereo partly drawn) [N-(1-(7-((R)-5-chloro-2-(piperazine-1-carbonyl)-2,3-dihydrobenzofuran-7-yl)thieno[3,2-b]pyridin-2-yl)propan-2-yl)acetamide], the IC50 is reported as < 1000 nM. In the case of `CC(Cc1cc2nccc(-c3cc(Cl)cc4c3O[C@@H](C(=O)N3CCNCC3)C4)c2s1)NS(C)(=O)=O` (stereo partly drawn) [N-(1-(7-((R)-5-chloro-2-(piperazine-1-carbonyl)-2,3-dihydrobenzofuran-7-yl)thieno[3,2-b]pyridin-2-yl)propan-2-yl)methanesulfonamide], the IC50 is reported as < 1000 nM. `CCC(NC(C)=O)c1cc2nccc(-c3cc(Cl)cc4c3O[C@@H](C(=O)N3CCNCC3)C4)c2s1` (stereo partly drawn) [N-(1-(7-((R)-5-chloro-2-(piperazine-1-carbonyl)-2,3-dihydrobenzofuran-7-yl)thieno[3,2-b]pyridin-2-yl)propyl)acetamide] was tested, and the IC50 was < 1000 nM. Compound `CC(=O)NCC1Cc2nccc(-c3cc(Cl)cc4c3O[C@@H](C(=O)N3CCNCC3)C4)c2C1` (stereo partly drawn) [N-((4-((R)-5-chloro-2-(piperazine-1-carbonyl)-2,3-dihydrobenzofuran-7-yl)-6,7-dihydro-5H-cyclopenta[b]pyridin-6-yl)methyl)acetamide] has an IC50 of 1000 to 10000 nM. `CC(NCc1cc2nccc(-c3cc(Cl)cc4c3O[C@@H](c3onc5c3CNCC5)C4)c2s1)C(F)(F)F` (stereo partly drawn) [N-((7-((R)-5-chloro-2-(4,5,6,7-tetrahydroisoxazolo[4,3-c]pyridin-3-yl)-2,3-dihydrobenzofuran-7-yl)thieno[3,2-b]pyridin-2-yl)methyl)-1,1,1-trifluoropropan-2-amine] was tested, and the IC50 was < 1000 nM. `O=C(NCc1ccccc1)c1cc2c(-c3cc(Cl)cc4c3OC(C(=O)N3CCNCC3)C4)ccnc2[nH]1` (stereo not shown) [N-benzyl-4-(5-chloro-2-(piperazine-1-carbonyl)-2,3-dihydrobenzofuran-7-yl)-1H-pyrrolo[2,3-b]pyridine-2-carboxamide] gave an IC50 of 1000 to 10000 nM. For `CCC(O)c1cc2nccc(-c3cc(Cl)cc4c3O[C@@H](c3onc5c3CN(C)CC5)C4)c2s1` (stereo partly drawn) [drawing 1521, 1-(7-((R)-5-chloro-2-(5-methyl-4,5,6,7-tetrahydroisoxazolo[4,3-c]pyridin-3-yl)-2,3-dihydrobenzofuran-7-yl)thieno[3,2-b]pyridin-2-yl)propan-1-ol], the IC50 was < 1000 nM.
